Measured values as given in patent US20050197376A1, “Concomitant drugs” (Fujisawa Pharmaceutical Co. Ltd., priority 2004, published 2005).

Tested on: type II diabetic patients
Experiment: Concurrent oral administration with sulfonylurea to type II diabetic patients
Format: in vivo, human
Conditions: type II diabetic patients on sulfonylureas (glipizide, glyburide or glimepiride); 15 mg/day oral, concurrently with sulfonylurea, plural months

CCCCCS(=O)(=O)NC(=O)c1ccc2nc(C)n(Cc3ccc(Cl)cc3Cl)c2c1 [(3), 1-(2,4-dichlorobenzyl)-2-methyl-N-(pentylsulfonyl)-1H-benzimidazole-6-carboxamide]
HbAlc decrease: not less than 1 % point
